Assay results taken from patent US9738634B2, “Heterocyclic amide compound and herbicide” (SYNGENTA PARTICIPATIONS AG, priority 2013, dated 2017).

Assays:
Format in all cases: in vivo
[1] = tested on: Indian mallow; experiment: Test Example 4: weedkilling efficacy by foliar treatment; K: Indian mallow; details: treatment dosage 315 g/ha
Outline: (§1)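 Seeds are spot-sown into sterilized diluvial soil and covered with about 1.5 cm of soil. After 14 days' greenhouse growth at 25 to 30° C, plants are sprayed on stems and leaves with diluted emulsion at the stated g/ha rate, then scored at 3 weeks.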

[2] = tested on: black-grass; experiment: Test Example 4: weedkilling efficacy by foliar treatment; H: black-grass; details: treatment dosage 315 g/ha
Outline: as §1

[3] = tested on: catchweed; experiment: Test Example 4: weedkilling efficacy by foliar treatment; O: catchweed; details: treatment dosage 315 g/ha
Outline: as §1

[4] = tested on: green foxtail; experiment: Test Example 4: weedkilling efficacy by foliar treatment; E: green foxtail; details: treatment dosage 315 g/ha
Outline: as §1

[5] = tested on: wheat; experiment: Test Example 4: foliar treatment, effect on crop; e: wheat; details: treatment dosage 315 g/ha
Outline: as §1

[6] = tested on: barnyard grass; experiment: Test Example 1: weedkilling efficacy, preemergent weed treatment in the submerged state; A: barnyard grass; details: treatment dosage 252 g/ha
Outline: (§2)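 Pre-emergence application onto floodwater (4 cm, alluvial soil) on the day of sowing, dose expressed as g/ha from diluted emulsion formulation. Weeds sown with 2.5-leaf transplanted rice as crop; plants held at 25–30 °C in greenhouse and scored against assessment criteria after 3 weeks.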

[7] = tested on: crabgrass; experiment: Test Example 4: weedkilling efficacy by foliar treatment; D: crabgrass; details: treatment dosage 315 g/ha
Outline: as §1

[8] = tested on: soybean; experiment: Test Example 4: foliar treatment, effect on crop; d: soybean; details: treatment dosage 315 g/ha
Outline: as §1

[9] = tested on: green foxtail; experiment: Test Example 3: weedkilling efficacy through soil treatment; E: green foxtail; details: treatment dosage 315 g/ha
Outline: (§3)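 Crop and weed responses were judged three weeks after a uniform surface spray of the water-diluted emulsion at the given g/ha rate. Seeds sat beneath about 1.5 cm of sterilized diluvial soil, and boxes stood in a greenhouse at 25 to 30° C.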

[10] = tested on: corn; experiment: Test Example 3: soil treatment, effect on crop; c: corn; details: treatment dosage 315 g/ha
Outline: as §3

[11] = tested on: wild oat; experiment: Test Example 4: weedkilling efficacy by foliar treatment; G: wild oat; details: treatment dosage 315 g/ha
Outline: as §1

[12] = tested on: soybean; experiment: Test Example 3: soil treatment, effect on crop; d: soybean; details: treatment dosage 315 g/ha
Outline: as §3

[13] = tested on: redroot pigweed; experiment: Test Example 3: weedkilling efficacy through soil treatment; L: redroot pigweed; details: treatment dosage 315 g/ha
Outline: as §3

[14] = tested on: bulrush; experiment: Test Example 2: weedkilling efficacy, growth period weed treatment in the submerged state; B: bulrush; details: treatment dosage 252 g/ha
Outline: (§4)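 Weeds treated at the 1-2 leaf stage by application of diluted emulsion onto floodwater (4 cm depth, alluvial soil) at specified g/ha. Grown in greenhouse at 25 to 30° C; herbicidal effect rated three weeks after treatment.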

[15] = tested on: Indian mallow; experiment: Test Example 3: weedkilling efficacy through soil treatment; K: Indian mallow; details: treatment dosage 315 g/ha
Outline: as §3

[16] = tested on: wild oat; experiment: Test Example 3: weedkilling efficacy through soil treatment; G: wild oat; details: treatment dosage 315 g/ha
Outline: as §3

[17] = tested on: oval-leafed pondweed; experiment: Test Example 2: weedkilling efficacy, growth period weed treatment in the submerged state; C: oval-leafed pondweed; details: treatment dosage 252 g/ha
Outline: as §4

[18] = tested on: redroot pigweed; experiment: Test Example 4: weedkilling efficacy by foliar treatment; L: redroot pigweed; details: treatment dosage 315 g/ha
Outline: as §1

[19] = tested on: Italian ryegrass; experiment: Test Example 4: weedkilling efficacy by foliar treatment; I: Italian ryegrass; details: treatment dosage 315 g/ha
Outline: as §1

[20] = tested on: chickweed; experiment: Test Example 4: weedkilling efficacy by foliar treatment; N: chickweed; details: treatment dosage 315 g/ha
Outline: as §1

[21] = tested on: chickweed; experiment: Test Example 3: weedkilling efficacy through soil treatment; N: chickweed; details: treatment dosage 315 g/ha
Outline: as §3

[22] = tested on: corn; experiment: Test Example 4: foliar treatment, effect on crop; c: corn; details: treatment dosage 315 g/ha
Outline: as §1

[23] = tested on: beet; experiment: Test Example 3: soil treatment, effect on crop; f: beet; details: treatment dosage 315 g/ha
Outline: as §3

[24] = tested on: oval-leafed pondweed; experiment: Test Example 1: weedkilling efficacy, preemergent weed treatment in the submerged state; C: oval-leafed pondweed; details: treatment dosage 252 g/ha
Outline: as §2

[25] = tested on: Italian ryegrass; experiment: Test Example 3: weedkilling efficacy through soil treatment; I: Italian ryegrass; details: treatment dosage 315 g/ha
Outline: as §3

[26] = tested on: bulrush; experiment: Test Example 1: weedkilling efficacy, preemergent weed treatment in the submerged state; B: bulrush; details: treatment dosage 252 g/ha
Outline: as §2

[27] = tested on: birds-eye speedwell; experiment: Test Example 4: weedkilling efficacy by foliar treatment; p: birds-eye speedwell; details: treatment dosage 315 g/ha
Outline: as §1

[28] = tested on: fig-leafed goosefoot; experiment: Test Example 3: weedkilling efficacy through soil treatment; M: fig-leafed goosefoot; details: treatment dosage 315 g/ha
Outline: as §3

[29] = tested on: crabgrass; experiment: Test Example 3: weedkilling efficacy through soil treatment; D: crabgrass; details: treatment dosage 315 g/ha
Outline: as §3

[30] = tested on: fig-leafed goosefoot; experiment: Test Example 4: weedkilling efficacy by foliar treatment; M: fig-leafed goosefoot; details: treatment dosage 315 g/ha
Outline: as §1

[31] = tested on: directly sown rice; experiment: Test Example 3: soil treatment, effect on crop; b: directly sown rice; details: treatment dosage 315 g/ha
Outline: as §3

[32] = tested on: directly sown rice; experiment: Test Example 4: foliar treatment, effect on crop; b: directly sown rice; details: treatment dosage 315 g/ha
Outline: as §1

[33] = tested on: beet; experiment: Test Example 4: foliar treatment, effect on crop; f: beet; details: treatment dosage 315 g/ha
Outline: as §1

[34] = tested on: black-grass; experiment: Test Example 3: weedkilling efficacy through soil treatment; H: black-grass; details: treatment dosage 315 g/ha
Outline: as §3

[35] = tested on: barnyard grass; experiment: Test Example 2: weedkilling efficacy, growth period weed treatment in the submerged state; A: barnyard grass; details: treatment dosage 252 g/ha
Outline: as §4

[36] = tested on: wheat; experiment: Test Example 3: soil treatment, effect on crop; e: wheat; details: treatment dosage 315 g/ha
Outline: as §3

[37] = tested on: transplanted rice; experiment: Test Example 1: preemergent weed treatment in the submerged state, effect on crop; a: transplanted rice; details: treatment dosage 252 g/ha
Outline: as §2

Structure (SMILES)	K (Indian mallow) weedkilling efficacy grade [1]	H (black-grass) weedkilling efficacy grade [2]	O (catchweed) weedkilling efficacy grade [3]	E (green foxtail) weedkilling efficacy grade [4]	e (wheat) effect on crop grade [5]	A (barnyard grass) weedkilling efficacy grade [6]	D (crabgrass) weedkilling efficacy grade [7]	d (soybean) effect on crop grade [8]	E (green foxtail) weedkilling efficacy grade [9]	c (corn) effect on crop grade [10]	G (wild oat) weedkilling efficacy grade [11]	d (soybean) effect on crop grade [12]	L (redroot pigweed) weedkilling efficacy grade [13]	B (bulrush) weedkilling efficacy grade [14]	K (Indian mallow) weedkilling efficacy grade [15]	G (wild oat) weedkilling efficacy grade [16]	C (oval-leafed pondweed) weedkilling efficacy grade [17]	L (redroot pigweed) weedkilling efficacy grade [18]	I (Italian ryegrass) weedkilling efficacy grade [19]	N (chickweed) weedkilling efficacy grade [20]	also measured
CC1=C(c2ccccc2)C(=O)N(C(C)(C)C(=O)Nc2cc(Cl)cc(Cl)n2)CO1 [B-2-34]	5 (weed kill ratio 90% or more, (practically complete withering))	5 (weed kill ratio 90% or more, (practically complete withering))	0 (weed kill ratio 5% or less (practically no effect))	5 (weed kill ratio 90% or more, (practically complete withering))	1 (weed kill ratio 5% or more, less than 20%)	5 (weed kill ratio 90% or more, (practically complete withering))	5 (weed kill ratio 90% or more, (practically complete withering))	5 (weed kill ratio 90% or more, (practically complete withering))	5 (weed kill ratio 90% or more, (practically complete withering))	2 (weed kill ratio 20% or more, less than 40%)	5 (weed kill ratio 90% or more, (practically complete withering))	1 (weed kill ratio 5% or more, less than 20%)	5 (weed kill ratio 90% or more, (practically complete withering))	5 (weed kill ratio 90% or more, (practically complete withering))	5 (weed kill ratio 90% or more, (practically complete withering))	5 (weed kill ratio 90% or more, (practically complete withering))	5 (weed kill ratio 90% or more, (practically complete withering))	4 (weed kill ratio 70% or more, less than 90%)	5 (weed kill ratio 90% or more, (practically complete withering))	3 (weed kill ratio 40% or more, less than 70%)	N (chickweed) weedkilling efficacy grade [21]: 5 (weed kill ratio 90% or more, (practically complete withering)); c (corn) effect on crop grade [22]: 3 (weed kill ratio 40% or more, less than 70%); f (beet) effect on crop grade [23]: 5 (weed kill ratio 90% or more, (practically complete withering)); C (oval-leafed pondweed) weedkilling efficacy grade [24]: 5 (weed kill ratio 90% or more, (practically complete withering)); I (Italian ryegrass) weedkilling efficacy grade [25]: 5 (weed kill ratio 90% or more, (practically complete withering)); B (bulrush) weedkilling efficacy grade [26]: 5 (weed kill ratio 90% or more, (practically complete withering)); P (birds-eye speedwell) weedkilling efficacy grade [27]: 3 (weed kill ratio 40% or more, less than 70%); M (fig-leafed goosefoot) weedkilling efficacy grade [28]: 4 (weed kill ratio 70% or more, less than 90%); D (crabgrass) weedkilling efficacy grade [29]: 5 (weed kill ratio 90% or more, (practically complete withering)); M (fig-leafed goosefoot) weedkilling efficacy grade [30]: 3 (weed kill ratio 40% or more, less than 70%); b (directly sown rice) effect on crop grade [31]: 5 (weed kill ratio 90% or more, (practically complete withering)); b (directly sown rice) effect on crop grade [32]: 5 (weed kill ratio 90% or more, (practically complete withering)); f (beet) effect on crop grade [33]: 4 (weed kill ratio 70% or more, less than 90%); H (black-grass) weedkilling efficacy grade [34]: 5 (weed kill ratio 90% or more, (practically complete withering)); A (barnyard grass) weedkilling efficacy grade [35]: 5 (weed kill ratio 90% or more, (practically complete withering)); e (wheat) effect on crop grade [36]: 1 (weed kill ratio 5% or more, less than 20%); a (transplanted rice) effect on crop grade [37]: 0 (weed kill ratio 5% or less (practically no effect))
CC1=C(c2ccccc2)C(=O)N(C(C)(C)C(=O)Nc2ccnc(Cl)c2)CO1 [B-4-03]	4 (weed kill ratio 70% or more, less than 90%)	5 (weed kill ratio 90% or more, (practically complete withering))	5 (weed kill ratio 90% or more, (practically complete withering))	5 (weed kill ratio 90% or more, (practically complete withering))	0 (weed kill ratio 5% or less (practically no effect))	5 (weed kill ratio 90% or more, (practically complete withering))	5 (weed kill ratio 90% or more, (practically complete withering))	4 (weed kill ratio 70% or more, less than 90%)	5 (weed kill ratio 90% or more, (practically complete withering))	2 (weed kill ratio 20% or more, less than 40%)	5 (weed kill ratio 90% or more, (practically complete withering))	3 (weed kill ratio 40% or more, less than 70%)	5 (weed kill ratio 90% or more, (practically complete withering))	5 (weed kill ratio 90% or more, (practically complete withering))	3 (weed kill ratio 40% or more, less than 70%)	4 (weed kill ratio 70% or more, less than 90%)	4 (weed kill ratio 70% or more, less than 90%)	3 (weed kill ratio 40% or more, less than 70%)	5 (weed kill ratio 90% or more, (practically complete withering))	1 (weed kill ratio 5% or more, less than 20%)	N (chickweed) weedkilling efficacy grade [21]: 3 (weed kill ratio 40% or more, less than 70%); c (corn) effect on crop grade [22]: 4 (weed kill ratio 70% or more, less than 90%); f (beet) effect on crop grade [23]: 4 (weed kill ratio 70% or more, less than 90%); C (oval-leafed pondweed) weedkilling efficacy grade [24]: 5 (weed kill ratio 90% or more, (practically complete withering)); I (Italian ryegrass) weedkilling efficacy grade [25]: 5 (weed kill ratio 90% or more, (practically complete withering)); B (bulrush) weedkilling efficacy grade [26]: 5 (weed kill ratio 90% or more, (practically complete withering)); P (birds-eye speedwell) weedkilling efficacy grade [27]: 4 (weed kill ratio 70% or more, less than 90%); M (fig-leafed goosefoot) weedkilling efficacy grade [28]: 5 (weed kill ratio 90% or more, (practically complete withering)); D (crabgrass) weedkilling efficacy grade [29]: 5 (weed kill ratio 90% or more, (practically complete withering)); M (fig-leafed goosefoot) weedkilling efficacy grade [30]: 3 (weed kill ratio 40% or more, less than 70%); b (directly sown rice) effect on crop grade [32]: 5 (weed kill ratio 90% or more, (practically complete withering)); f (beet) effect on crop grade [33]: 4 (weed kill ratio 70% or more, less than 90%); H (black-grass) weedkilling efficacy grade [34]: 5 (weed kill ratio 90% or more, (practically complete withering)); A (barnyard grass) weedkilling efficacy grade [35]: 4 (weed kill ratio 70% or more, less than 90%); e (wheat) effect on crop grade [36]: 1 (weed kill ratio 5% or more, less than 20%); a (transplanted rice) effect on crop grade [37]: 4 (weed kill ratio 70% or more, less than 90%)
